Experiment [1] has as its system Pseudomonas aeruginosa. Description: Synergistic antibacterial activity against Pseudomonas aeruginosa ATCC 27883 assessed as fractional inhibitory concentration index incubated for 24 hrs in presence of levofloxacin by checkerboard assay. It counts as functional.
The subject of experiment [2] is Staphylococcus aureus. The experiment in a line: Bactericidal activity against methicillin resistant Staphylococcus aureus ATCC BAA 1556 assessed as reduction in bacterial viability at MIC measured after 4 hrs by Time kill assay. It counts as functional, organism-based.
For experiment [3], the system named is Staphylococcus aureus. The experiment in a line: Antibacterial activity against Staphylococcus aureus ATCC BAA -1556 assessed as levofloxacin MIC incubated for 24 hrs by microbroth dilution assay. It counts as functional. For orientation: Dilution methods test growth across graded concentrations, often in twofold steps.
The test system of experiment [4] is Klebsiella pneumoniae. Description: Synergistic antibacterial activity against Klebsiella pneumoniae ATCC BAA 1705 assessed as fractional inhibitory concentration index incubated for 24 hrs in presence of polymyxin B by checkerboard assay. It counts as functional.
Experiment [5] has as its system Klebsiella pneumoniae. The experiment in a line: Synergistic antibacterial activity against Klebsiella pneumoniae ATCC BAA 1705 assessed as fractional inhibitory concentration index incubated for 24 hrs in presence of daptomycin by checkerboard assay. It counts as functional.
Experiment [6] concerns Pseudomonas aeruginosa. The experiment in a line: Antibacterial activity against Pseudomonas aeruginosa ATCC 27883 assessed as polymyxin B MIC incubated for 24 hrs by microbroth dilution assay. It counts as functional.
Experiment [7] deals with Escherichia coli. The experiment in a line: Antibacterial activity against Escherichia coli ATCC 25922 assessed as kanamycin MIC incubated for 24 hrs by microbroth dilution assay. It counts as functional.
Experiment [8] deals with Escherichia coli. The experiment in a line: Synergistic antibacterial activity against Escherichia coli ATCC 25922 assessed as fractional inhibitory concentration index incubated for 24 hrs in presence of kanamycin by checkerboard assay. It counts as functional.
Experiment [9] relates to Escherichia coli. Description: Antibacterial activity against Escherichia coli ATCC 25922 assessed as vancomycin MIC incubated for 24 hrs by microbroth dilution assay. The format is functional.
Experiment [10] has as its system Escherichia coli. The experiment in a line: Antibacterial activity against Escherichia coli ATCC 25922 assessed as polymyxin B MIC incubated for 24 hrs by microbroth dilution assay. The format is functional.

Active and inactive are the calls of the source. Where a SMILES comes first, the peptide text is derived from it.

The MIC is the smallest concentration in the dilution series that meets the test's criterion for growth inhibition. Turning to `N=C(N)NCCC[C@@H]1NC(=O)[C@H](CCCNC(=N)N)NC(=O)[C@H](CCCNC(=N)N)NC(=O)[C@H](CCCNC(=N)N)NC(=O)[C@H](Cc2c[nH]c3ccccc23)NC(=O)[C@H](Cc2c[nH]c3ccccc23)NC(=O)[C@H](Cc2c[nH]c3ccccc23)NC(=O)[C@H](Cc2c[nH]c3ccccc23)NC(=O)[C@H](CCCCN)NC(=O)[C@H](CCCNC(=N)N)NC1=O` (cyclo(KWWWWRRRRR)), the “fractional inhibitory concentration index (FICI)” value in the experiment on Pseudomonas aeruginosa [1] stood at 0.375; in the experiment on Klebsiella pneumoniae [4] it was 0.313; with Klebsiella pneumoniae [5] it was 0.313; in the experiment on Escherichia coli [8], 0.375. Also, the result in the experiment with Staphylococcus aureus [2] was Active. The minimal inhibitory concentration (MIC) in the experiment with Staphylococcus aureus [3] came out at 1 µg/mL; with Pseudomonas aeruginosa [6], 0.125 µg/mL; with Escherichia coli [7] it was 4 µg/mL; in the experiment on Escherichia coli [9] it was 16 µg/mL; in the experiment with Escherichia coli [10], 0.125 µg/mL.

These data come from ChEMBL document CHEMBL5154823, “Amphiphilic cyclic peptide [W4KR5]-Antibiotics combinations as broad-spectrum antimicrobial agents” (Eur J Med Chem, 2022).
